In PMC8233378, “Acyclic nucleoside phosphonates with adenine nucleobase inhibit Trypanosoma brucei adenine phosphoribosyltransferase in vitro” (Scientific Reports, 2021):
Structures can show the parent of a compound that is named as a salt. Where two headings read alike, the source gives them in different places. Blank lines part the entries; values can stand above or below the compound they belong to.

Legend:
[1] = target: recombinant T. brucei APRT1 (Trypanosoma brucei brucei, UniProt Q57V32); experiment: Inhibition of recombinant APRT1, continuous spectrophotometric assay (adenine to AMP, 256 nm); assay type: biochemical; conditions: recombinant APRT1 280 nM, 1 mM PRib-PP, 60 μM adenine, pH 8.4, 25 °C
From the text: To test if the newly synthesized ANPs with an adenine as a nucleobase can inhibit the activity of the APRT1 and APRT2, both enzymes were overexpressed in E. coli. […] First, we monitored the APRT1 enzyme activity by a continuous spectrophotometric assay measuring the conversion of adenine to AMP at 256 nm.
The T. brucei aprt1 and aprt2 genes were PCR amplified using oligonucleotides listed in Supplementary File S1, digested with BglII or BamHI and XhoI enzymes and ligated into the pSKB3 expression vector. The pSKB3 vector carries a 6 × His-tag and an AcTEV cleavage site upstream of BamHI restriction site. A BglII or BamHI restriction site was introduced at the 5′ end of the respective genes instead of the initiation methionine codon to maintain the 6 × His-tag and AcTEV recognition motif in frame with the genes. The verified plasmids were transformed into the BL21(DE3) E. coli cells. The 6xhis-tagged recombinant APRT1 protein was purified under native conditions using the ÄKTA prime plus instrument. Elution fractions were analyzed by SDS-PAGE, and those containing APRT1 were pooled and dialyzed against 50 mM Tris–HCl, pH 8.0, 150 mM NaCl, 5 mM MgCl2, 10% glycerol. Bradford protein assay (BioRad) was used to determine protein concentrations. The APRT1 recombinant protein was sent for antibody production to Davids Biotechnology (Regensburg, Germany). Recombinant APRT1 was subsequently used in all in vitro assays.
The methodology was adapted from Ref.[6]. Briefly, the enzyme kinetics of APRT1 were measured by a continuous spectrophotometric assay measuring the conversion of adenine to AMP, at 256 nm. The concentration of enzyme in the assay was 140 nM, the concentration of PRib-PP was kept at 1 mM and the adenine concentration varied from 3.75 to 60 μM. The reaction was carried out using a 1.0 cm path length with a UV Visible spectrometer 1601 (Shimadzu) in the reaction buffer (0.1 M Tris, pH 8.4; 0.11 M MgCl2; at 25 °C). The initial velocity (V0 [µM/min]) was calculated using Beer–Lambert law for different concentration of the purine substrate molecules: A = Δε × L × c where A is the measured absorbance, Δε is constant 2100 M^−1 cm^−1 for adenine, c is a concentration of the product formed in one minute (V0) and L is the length of a cuvette. The Km, Vmax and kcat values were calculated using GraphPad Prism 9 according to Michaelis–Menten kinetics. The Ki values of the inhibitors for APRT1 were determined in the same reaction buffer containing 1 mM PRib-PP, 60 μM adenine and 280 nM APRT1. The concentrations of inhibitors in the assay ranged from 1 nM to 100 μM, depending on the activity of the compound. The reaction was preceded by 1 min incubation of the respective enzyme with the given inhibitor. The Ki values were calculated using non-linear regression in GraphPad Prism 9.

[2] = test system: T. brucei BSF cells; experiment: Cell cycle analysis of treated trypanosomes (microscopy, flow cytometry with propidium iodide); assay type: cell-based, Trypanosoma brucei; conditions: for distribution of cell cycle stages by flow cytometry (DNA content): 1 to 16 µM, 12 h, propidium iodide
From the text: The inhibition of the growth of T. brucei BSF in HMI-11 medium in single micromolar EC50 values (Table 1) was somewhat surprising considering the dispensability of APRT enzymes for these cells. […] To get deeper insights into the in vivo action of ANPs on APRT enzyme we tested their cytotoxicity on wild type cells grown in HMI-11^adenine medium. In this medium, the cells rely on the activity of the APRT enzyme to produce AMP and other […]. […] To corroborate this observation, we also tested cells with induced ectopic expression of V5-tagged APRT1 in both types of media and in the presence of the selected ANPs. […] The changes in the distribution of different cell cycle stages within a population were further assessed by flow cytometry assaying the DNA content by staining the cells with propidium iodide (Fig. 8A).
BFS trypanosomes in log phase were resuspended in HMI-11 medium to a density of 2 × 10^5 cells ml^−1. Test compounds at concentrations ranging from 1 to 16 µM were added to the cell suspension followed by 12 h incubation at 37 °C. The cell cycle analysis was performed as described previously. Briefly, approximately 2 × 10^6 cells were washed with PBS and fixed in 1 ml of 70% methanol in 1 × PBS and stored at 4 °C overnight. Following a PBS wash, samples were incubated with 10 µg/ml propidium iodide and 9.6 µg/ml of RNaseA at 37 °C for 45 min. Samples were analyzed on a FACS Canto II (BD) collecting 10,000 gated events.

[3] = Cytotoxicity of the prodrug in human cells (CellTiter-Glo 2.0), HeLa S3; assay type: cell-based; conditions: human, HeLa S3 cells; HeLa S3, 10 µM; read-out: Cytotoxicity of prodrug: HeLaS3 viability
Experimental: (§1) Compound cytotoxicity was evaluated in Hela S3 cancer cells and non-tumor human dermal fibroblasts (NHDF). All cell lines were obtained from ATCC (Manassas, VA, USA). The cytotoxicity was assayed using CellTiter-Glo® 2.0 detection reagent (Promega, Madison, USA) according to the manufacturer’s protocol.

[4] = test system: T. brucei BSF427; experiment: Alamar Blue assay, BSF427 cells; assay type: cell-based; conditions: Trypanosoma brucei, read-out: T. brucei BSF EC50
Experimental: The bloodstream form (BSF) T. b. brucei Lister 427 and single marker (SM) strains were cultivated in HMI-11 medium and 10% FBS at 37 °C in a humidified atmosphere at 5% CO2[26]. HMI-11 medium containing dialyzed 10% FBS and only one defined source of the purine base, adenine, was used for selected experiments (50 μM, HMI-11^adenine). The SM cell line constitutively expressing ectopic T7 RNA polymerase and tetracycline repressor was used for the tetracycline-inducible expression of dsRNA and V5-tagged proteins. To generate SKD APRT1 and DKD APRT1/2 RNAi cell lines, the 524 bp and 537 bp fragments of the aprt-I (Tb927.7.1780) and aprt-II (Tb927.7.1790) open reading frames, respectively, were PCR amplified from T. brucei BSF427 genomic DNA with the oligonucleotides (Supplementary File S1). The APRT1 fragment was cloned into the p2T7-TABlue, while the APRT2 fragment was cloned into, into the p2T7-177 plasmid. The p2T7-TABlue plasmid containing the APRT1 fragment was electroporated to SM cells which were subjected to selection with hygromycin (5 µg/ml). Verified SKD APRT1 cell line was then transfected with Not-1 linearized p2T7-177 plasmid containing the APRT2 fragment and the resulting DKD APRT1/2 cell line was selected with phleomycin (2.5 µg/ml). For the inducible expression of V5-tagged APRT1 andAPRT2, the coding sequences of the respective genes were PCR amplified using oligonucleotides listed in Supporting Information S1. The obtained PCR fragments were cloned into the pT7_N-term-V5 vector[6] using BglII or BamHI and XbaI restriction enzymes. Plasmids were then transfected to SM BSF cells. The resulting transfectants were established in medium containing puromycin (0.1 µg/ml). The induction of the dsRNA or tagged proteins was triggered by the addition of 1 µg/ml of tetracycline into the medium.
An Alamar Blue Assay was performed in a 96-well plate format to screen for sensitivity of T. brucei BSF cells to ANPs as previously published. The EC50 values were calculated using non-linear regression in GraphPad Prism 9.

[5] = Cytotoxicity of the prodrug in human cells (CellTiter-Glo 2.0), NHDF; assay type: cell-based; conditions: human, normal human dermal fibroblasts (NHDF), NHDF
Experimental: as §1

[6] = BSF427, HMI-11^adenine medium (50 μM adenine as sole purine)

recombinant T. brucei APRT1, sequence (Q57V32 entry or part of it): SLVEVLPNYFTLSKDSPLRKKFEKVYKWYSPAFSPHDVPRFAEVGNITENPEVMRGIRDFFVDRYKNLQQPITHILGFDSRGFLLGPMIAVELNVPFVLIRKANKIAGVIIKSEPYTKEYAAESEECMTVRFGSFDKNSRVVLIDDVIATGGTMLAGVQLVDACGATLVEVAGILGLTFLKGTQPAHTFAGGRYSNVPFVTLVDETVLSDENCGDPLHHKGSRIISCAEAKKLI

- Ki ([1]; read-out: APRT1 Ki): 10.1 ± 1.1 µM
SMILES: Nc1ncnc2c1ncn2CCCSCP(=O)(O)O [3a, 5-(Adenin-9-yl)-2-thiapentanephosphonic acid, disodium salt]

- Ki ([1]; read-out: APRT1 Ki): > 30 µM
SMILES: Nc1ncnc2c1ncn2CCSCCP(=O)(O)O [3b, 5-(Adenin-9-yl)-3-thiapentanephosphonic acid, disodium salt]

- Ki ([1]; read-out: APRT1 Ki): > 30 µM
SMILES: Nc1ncnc2c1ncn2CCC[S+]([O-])CP(=O)(O)O (centres unmarked) [4a, 5-(Adenin-9-yl)-2-oxo-2-thiapentanephosphonic acid, disodium salt]

SMILES: Nc1ncnc2c1ncn2CC[S+]([O-])CCP(=O)(O)O (centres unmarked) [4b, Sodium 5-(adenin-9-yl)-3-oxo-3-thiapentanephosphonate]
- Ki ([1]; APRT1 Ki): > 30 µM

- Ki ([1]; read-out: APRT1 Ki): 4.92 ± 0.43 µM
SMILES: Nc1ncnc2c1ncn2CCN(CCNCCO)CCP(=O)(O)O [9a, 9-[(N-(2-((2-Hydroxyethyl)amino)ethyl)-N-(2-phosphonoethyl))-2-aminoethyl]adenine triethylammonium salt]

- Ki ([1]; read-out: APRT1 Ki): > 30 µM
SMILES: N#CCCN(CCn1cnc2c(N)ncnc21)CCP(=O)(O)O [9b, 9-[(N-(2-Cyanoethyl)-N-(2-phosphonoethyl))-2-aminoethyl]adenine]

- Ki ([1]; read-out: APRT1 Ki): > 30 µM
SMILES: Nc1ncnc2c1ncn2CCN(CCP(=O)(O)O)CCP(=O)(O)O [9c, 9-[(N,N-(Bis-2-phosphonoethyl))-2-aminoethyl]adenine]

- Ki ([1]; read-out: APRT1 Ki): 3.88 ± 0.29 µM
SMILES: Nc1ncnc2c1ncn2CCN(CCOCP(=O)(O)O)CCP(=O)(O)O [9d, 9-[(N-Phosphonoethyl-N-phosphonomethoxyethyl)-2-aminoethyl]adenine]

- Ki ([1]; read-out: APRT1 Ki): > 30 µM
SMILES: Nc1ncnc2c1ncn2CCN(CCCC(=O)O)CCP(=O)(O)O [9f, 9-[(N-(Carboxypropyl)-N-(2-phosphonoethyl))-2-aminoethyl]adenine]

- Ki ([1]; read-out: APRT1 Ki): 3.07 ± 0.25 µM
SMILES: Nc1ncnc2c1ncn2CCN(CCOCCP(=O)(O)O)CCP(=O)(O)O [9g, 9-[(N-Phosphonoethyl-N-phosphonoethoxyethyl)-2-aminoethyl]adenine]

SMILES: CC(C)OC(=O)[C@H](Cc1ccccc1)NP(=O)(CSCCCn1cnc2c(N)ncnc21)N[C@@H](Cc1ccccc1)C(=O)OC(C)C [24a, 9-(5-(Bis((S-1-isopropoxycarbonyl-2-phenylethyl)amino)phosphoryl)-4-thiapentyl)adenine]
- direct microscopic observation of exposed T. brucei cells [2]: problems in the cell cycle
- distribution of cell cycle stages by flow cytometry (DNA content) [2]: increase in the number of cells in G1-phase
- viability at 10 µM [3]: 99%
- EC50 [4, 6]: 6.36 µM
- EC50 ([4]; BSF427, HMI-11 medium): 6.16 µM
- viability at 10 µM [5]: 89%

SMILES: CC(C)OC(=O)[C@H](Cc1ccccc1)NP(=O)(CCSCCn1cnc2c(N)ncnc21)N[C@@H](Cc1ccccc1)C(=O)OC(C)C [24b, 9-(5-(Bis((S-1-isopropoxycarbonyl-2-phenylethyl)amino)phosphoryl)-3-thiapentyl)adenine]
- direct microscopic observation of exposed T. brucei cells [2]: problems in the cell cycle
- distribution of cell cycle stages by flow cytometry (DNA content) [2]: increase in the number of cells in G1-phase
- viability at 10 µM [3]: 98%
- EC50 [4, 6]: 6.16 µM
- EC50 ([4]; BSF427, HMI-11 medium): 6.36 µM
- viability at 10 µM [5]: 89%

- Ki ([1]; read-out: APRT1 Ki): 21.3 ± 2.1 µM
SMILES: Nc1ncnc2c1ncn2CCN(CCN(CCP(=O)(O)O)CCP(=O)(O)O)CCP(=O)(O)O [compound 17, (2-((2-((2-(Adenine-9-yl)ethyl)(2-phosphonoethyl)amino)ethyl)(2-phosphonoethyl)amino)ethyl)phosphonic acid]

- Ki ([1]; read-out: APRT1 Ki): 27.7 ± 4.5 µM
SMILES: Nc1ncnc2c1ncn2CC(COCCP(=O)(O)O)OCCP(=O)(O)O (centres unmarked) [compound 20, 4-(Adenin-9-ylmethyl)-3,6-dioxaoctane-1,8-diphosphonic acid]

- Ki ([1]; read-out: APRT1 Ki): > 30 µM
SMILES: Nc1ncnc2c1ncn2CCOC(CO)CP(=O)(O)O (centres unmarked) [compound 21, 9-[2-(3-Hydroxy-1-phosphonopropan-2-yloxy)ethyl]adenine]

- Ki ([1]; read-out: APRT1 Ki): 5.15 ± 0.69 µM
SMILES: Nc1ncnc2c1ncn2CC(COCP(=O)(O)O)COCP(=O)(O)O [compound 22, {[(2-[(Adenin-9-yl)methyl]propane-1,3-diyl)bis(oxy)]bis(methylene)}diphosphonic acid]

- EC50 ([4]; BSF427, HMI-11 medium): 3.7 µM
SMILES: CCOC(=O)[C@H](Cc1ccccc1)NP(=O)(COCC(COCP(=O)(N[C@@H](Cc1ccccc1)C(=O)OCC)N[C@@H](Cc1ccccc1)C(=O)OCC)Cn1cnc2c(N)ncnc21)N[C@@H](Cc1ccccc1)C(=O)OCC [compound 25, Tetra-(L-phenylalanineethyl ester) prodrug of {[(2-[(adenin-9-yl)methyl]propane-1,3-diyl)bis(oxy)]bis(methylene)}diphosphonic acid]
- viability at 10 µM [3]: 99%
- viability at 10 µM [5]: 90%

- EC50 ([4]; BSF427, HMI-11 medium): 1.55 µM
SMILES: CCOC(=O)[C@H](Cc1ccccc1)NP(=O)(CCOCC(Cn1cnc2c(N)ncnc21)OCCP(=O)(N[C@@H](Cc1ccccc1)C(=O)OCC)N[C@@H](Cc1ccccc1)C(=O)OCC)N[C@@H](Cc1ccccc1)C(=O)OCC (stereo partly drawn) [compound 26, Tetra-(L-phenylalanineethyl ester) prodrug of (2-[3-(adenin-9-yl)-2-(2-bis(hydroxyphosphoryl)ethoxy)propoxy]ethyl}phosphonic acid]
- viability at 10 µM [3]: 100%
- viability at 10 µM [5]: 88%
